These results are taken from US20240083857A1, “2-Methyl-Quinazolines” (Bayer Pharma Aktiengesellschaft, priority 2017, published 2024).

Counter-ions that a name gives are not always drawn.

Usually IC50 stands for the concentration needed to halve the response being measured. What is called inhibition is the relative decrease from the control value, in per cent.

The target in experiment [1] is human SOS1 (nucleotide exchange of K-Ras^G12C) (Homo sapiens, UniProt Q07889). Description: Biochemical assay 2: K-Ras^G12C activation assay by hSOS1 at high GTP concentration (HTRF). The note with it: high GTP; read-out: Assay 2 (KRAS-Activation by SOS high GTP) activity expressed as IC50. (In general: TR-FRET usually uses a lanthanide donor and a delayed reading to cut background.)

In experiment [2] the target is human SOS1 (loading of human K-Ras^G12C-GDP with fluorescent GTP-analog) (Homo sapiens, UniProt Q07889). Description: Biochemical assay 3: K-Ras^G12C activation assay by hSOS1 (HTRF). The conditions noted are these: no GTP; for IC50: read-out: Assay 3 (KRAS-Activation by SOS no GTP) activity expressed as IC50.

On to `COc1cc2nc(C)nc(NC(C)c3ccc(-c4cccc(CN)c4)s3)c2cc1OC` (centres unmarked) [Example 265, N-[1-{5-[3-(aminomethyl)phenyl]thiophen-2-yl}ethyl]-6,7-dimethoxy-2-methylquinazolin-4-amine], for which the figures for the IC50 in experiment [1] and in experiment [2] were 1470 nM and 1110 nM, respectively.
The matching figures for `COc1cc2nc(C)nc(NC(C)c3cc(Br)cs3)c2cc1OC` (centres unmarked) [Example 264, N-[1-(4-bromothiophen-2-yl)ethyl]-6,7-dimethoxy-2-methylquinazolin-4-amine]: 1670 nM and 4610 nM.
For `COc1cc2nc(C)nc(NC(C)c3ccc(-c4ccc(F)cc4CNC(=O)c4ncc[nH]4)s3)c2cc1OC` (centres unmarked) [Example 293, N-[2-(5-{1-[(6,7-dimethoxy-2-methylquinazolin-4-yl)amino]ethyl}thiophen-2-yl)-5-fluorobenzyl]-1H-imidazole-2-carboxamide] the same measures were 3920 nM and 8200 nM.
For the molecule `COc1cc2nc(C)nc(NC(C)c3nccc4sccc34)c2cc1OC` (centres unmarked) [Example 333, 6,7-dimethoxy-2-methyl-N-[1-(thieno[3,2-c]pyridin-4-yl)ethyl]quinazolin-4-amine], the figures for the half-inhibitory concentration (IC50) in experiment [1] and in experiment [2] were 6200 nM and 14800 nM, respectively.
As to `COc1cc2nc(C)nc(NC(C)c3ccc(-c4ccccc4CNCC(=O)c4c[nH]c5ccccc45)s3)c2cc1OC` (centres unmarked) [Example 277, 2-{[2-(5-{1-[(6,7-dimethoxy-2-methylquinazolin-4-yl)amino]ethyl}thiophen-2-yl)benzyl]amino}-1-(1H-indol-3-yl)ethanone], the concentration for half-maximal inhibition (IC50) in experiment [1] came out at 237 nM; in experiment [2] it was 263 nM.
Take `COc1cc2nc(C)nc(NC(C)c3ccc(-c4ccc(F)cc4CNCc4nccn4C)s3)c2cc1OC` (centres unmarked) [Example 304, N-[1-{5-[4-fluoro-2-({[(1-methyl-1H-imidazol-2-yl)methyl]amino}methyl)phenyl]thiophen-2-yl}ethyl]-6,7-dimethoxy-2-methylquinazolin-4-amine]: the results for the IC50 in experiment [1] and in experiment [2] were 469 nM and 399 nM, respectively.
The matching figures for `COc1cc2nc(C)nc(NC(C)c3ccc(-c4ccccc4CNCC(F)(F)F)s3)c2cc1OC` (centres unmarked) [Example 300, 6,7-di methoxy-2-methyl-N-{1-[5-(2-{[(2,2,2-trifluoroethyl)amino]methyl}phenyl)thiophen-2-yl]ethyl}quinazolin-4-amine]: 3070 nM and 5080 nM.
The matching figures for `COc1cc2nc(C)nc(N[C@H](C)c3cccc(-n4ccnc4)c3)c2cc1OC` [Example 340, N-{(1R)-1-[3-(1H-imidazol-1-yl)phenyl]ethyl}-6,7-dimethoxy-2-methylquinazolin-4-amine]: 909 nM and 1390 nM.
Turning to `COc1cc2nc(C)nc(N[C@H](C)c3cccc(-c4ccccc4CN)c3)c2cc1OC` [Example 258, N-{(1R)-1-[2′-(aminomethyl)biphenyl-3-yl]ethyl}-6,7-dimethoxy-2-methylquinazolin-4-amine], the concentration for half-maximal inhibition (IC50) in experiment [1] amounted to 190 nM; in experiment [2], 245 nM.
On to `COc1cc2nc(C)nc(NC(C)c3ccc(-c4ccccc4CNc4cc[nH]n4)s3)c2cc1OC` (centres unmarked) [Example 302, 6,7-dimethoxy-2-methyl-N-[1-(5-{2-[(1H-pyrazol-3-ylamino)methyl]phenyl}thiophen-2-yl)ethyl]quinazolin-4-amine], for which the IC50 came to 1260 nM in experiment [1] and 1540 nM in experiment [2].
For `COc1cc2nc(C)nc(NC(C)c3ccc(-c4ccccc4CN(C)C)s3)c2cc1OC` (centres unmarked) [Example 262, N-[1-(5-{2-[(dimethylamino)methyl]phenyl}thiophen-2-yl)ethyl]-6,7-dimethoxy-2-methylquinazolin-4-amine] the same measures were 44 nM and 51.1 nM.
For `COc1cc2nc(C)nc(NC(C)c3cc(-c4ccn(CCO)n4)cs3)c2cc1OC` (centres unmarked) [Example 273, 2-[3-(5-{1-[(6,7-dimethoxy-2-methylquinazolin-4-yl)amino]ethyl}thiophen-3-yl)-1H-pyrazol-1-yl]ethanol] the same measures were 2360 nM and 3630 nM.
With `COc1cc2nc(C)nc(NC(C)c3ccc(-c4cnc5n4CCC5)s3)c2cc1OC` (single isomer, unassigned; enantiomer 1) [Example 328, N-{1-[5-(6,7-dihydro-5H-pyrrolo[1,2-a]imidazol-3-yl)thiophen-2-yl]ethyl}-6,7-dimethoxy-2-methylquinazolin-4-amine, Enantiomer 1], the half-inhibitory concentration (IC50) in experiment [1] came out at 526 nM; in experiment [2], 669 nM.
On to `COc1cc2nc(C)nc(NC(C)c3ccc(-c4ccccc4CNc4ccccn4)s3)c2cc1OC` (centres unmarked) [Example 301, 6,7-di methoxy-2-methyl-N-[1-(5-{2-[(pyridin-2-ylamino)methyl]phenyl}thiophen-2-yl)ethyl]quinazolin-4-amine], for which the figures for the concentration for half-maximal inhibition (IC50) in experiment [1] and in experiment [2] were 931 nM and 1930 nM, respectively.
Take `COc1cc2nc(C)nc(NC(C)c3ccc(-c4ccccc4CN4CCNCC4)s3)c2cc1OC` (centres unmarked) [Example 305, 6,7-dimethoxy-2-methyl-N-[1-{5-[2-(piperazin-1-ylmethyl)phenyl]thiophen-2-yl}ethyl]quinazolin-4-amine hydrochloride]: the values for the IC50 in experiment [1] and in experiment [2] were 55.2 nM and 58.4 nM, respectively.
The matching figures for `COc1cc2nc(C)nc(NC(C)c3ccc(-c4ccccc4CN4CC[C@H]4CO)s3)c2cc1OC` (stereo partly drawn) [Example 318, {1-[(2S)-(5-{1-[(6,7-dimethoxy-2-methylquinazolin-4-yl)amino]ethyl}thiophen-2-yl)benzyl]azetidin-2-yl}methanol]: 167 nM and 221 nM.
The matching figures for `COc1cc2nc(C)nc(NC(C)c3ccc(-c4ccc(CN)o4)s3)c2cc1OC` (centres unmarked) [Example 275, N-[1-{5-[5-(aminomethyl)furan-2-yl]thiophen-2-yl}ethyl]-6,7-dimethoxy-2-methylquinazolin-4-amine]: 2970 nM and 6370 nM.
For the molecule `CCN(CC)Cc1ccccc1-c1ccc(C(C)Nc2nc(C)nc3cc(OC)c(OC)cc23)s1` (centres unmarked) [Example 288, N-[1-(5-{2-[(diethylamino)methyl]phenyl}thiophen-2-yl)ethyl]-6,7-dimethoxy-2-methylquinazolin-4-amine], the 50% inhibitory concentration (IC50) in experiment [1] worked out at 140 nM; in experiment [2] it was 247 nM.
The matching figures for `COc1cc2nc(C)nc(NC(C)c3cccc4c3cnn4C)c2cc1OC` (centres unmarked) [Example 17, 6,7-dimethoxy-2-methyl-N-[1-(1-methyl-1H-indazol-4-yl)ethyl]quinazolin-4-amine]: 297 nM and 712 nM.
For `COc1cc2nc(C)nc(NC(C)c3ccc(-c4ccccc4CN(C)CC(F)F)s3)c2cc1OC` (centres unmarked) [Example 291, N-{1-[5-(2-{[(2,2-difluoroethyl)(methyl)amino]methyl}phenyl)thiophen-2-yl]ethyl}-6,7-dimethoxy-2-methylquinazolin-4-amine] the same measures were 1320 nM and 2230 nM.
For `COc1cc2nc(C)nc(NC(C)c3ccc(-c4cscc4C#N)s3)c2cc1OC` (centres unmarked) [Example 287, 5-{1-[(6,7-dimethoxy-2-methylquinazolin-4-yl)amino]ethyl}-2,3′-bithiophene-4′-carbonitrile] the same measures were 1860 nM and 5760 nM.
For `COc1cc2nc(C)nc(NC(C)c3ccc(-c4cccc5sc(C(N)=O)c(N)c45)s3)c2cc1OC` (centres unmarked) [Example 278, 3-amino-4-(5-{1-[(6,7-dimethoxy-2-methylquinazolin-4-yl)amino]ethyl}thiophen-2-yl)-1-benzothiophene-2-carboxamide], the IC50 in experiment [1] was 3710 nM. Moreover, the inhibition at 20 µM in experiment [2] (read-out: Assay 3 (KRAS-Activation by SOS no GTP) activity expressed as % inhibition at 20 μM, at 20 μM) is 43%.
Regarding `COc1cc2nc(C)nc(NC(C)c3ccc(-c4ccccc4CN(C)CC(F)(F)F)s3)c2cc1OC` (centres unmarked) [Example 321, 6,7-di methoxy-2-methyl-N-{1-[5-(2-{[methyl(2,2,2-trifluoroethyl)amino]methyl}phenyl)thiophen-2-yl]ethyl}quinazolin-4-amine], the IC50 worked out at 6240 nM in experiment [1] and 12800 nM in experiment [2].
`CNCc1ccccc1-c1cc(C(C)Nc2nc(C)nc3cc(OC)c(OC)cc23)cs1` (centres unmarked) [Example 263, 6,7-dimethoxy-2-methyl-N-[1-(5-{2-[(methylamino)methyl]phenyl}thiophen-3-yl)ethyl]quinazolin-4-amine]: the IC50 turned out to be 232 nM in experiment [1] and 324 nM in experiment [2].
For `COc1cc2nc(C)nc(N[C@H](C)c3cccc(-c4c(C)noc4C)c3)c2cc1OC` [Example 336, N-{(1R)-1-[3-(3,5-dimethyl-1,2-oxazol-4-yl)phenyl]ethyl}-6,7-dimethoxy-2-methyl-quinazolin-4-amine] the same measures were 1260 nM and 1990 nM.
As for `COc1cc2nc(C)nc(NC(C)c3ccc(-c4ccc(Cl)cc4CN(C)C)s3)c2cc1OC` (centres unmarked) [Example 323, N-[1-(5-{4-chloro-2-[(dimethylamino)methyl]phenyl}thiophen-2-yl)ethyl]-6,7-dimethoxy-2-methylquinazolin-4-amine], the values for the half-maximal inhibitory concentration (IC50) in experiment [1] and in experiment [2] were 72.9 nM and 66.4 nM, respectively.
For `COc1cc2nc(C)nc(NC(C)c3ccc(-c4ccc(F)cc4CNC(=O)CNCC(F)(F)F)s3)c2cc1OC` (centres unmarked) [Example 295, N-[2-(5-{1-[(6,7-dimethoxy-2-methylquinazolin-4-yl)amino]ethyl}thiophen-2-yl)-5-fluorobenzyl]-N^2-(2,2,2-trifluoroethyl)glycinamide] the same measures were 1470 nM and 2780 nM.
The matching figures for `COc1cc2nc(C)nc(NC(C)c3ccc(-c4ccccc4CN4CCN(C)CC4)s3)c2cc1OC` (centres unmarked) [Example 308, 6,7-dimethoxy-2-methyl-N-[1-(5-{2-[(4-methylpiperazin-1-yl)methyl]phenyl}thiophen-2-yl)ethyl]quinazolin-4-amine]: 229 nM and 220 nM.
